The text below walks through data of ChEMBL document CHEMBL5212743, “Selectivity Literature for EUbOPEN Chemogenomics Library wave 3” (2023).

Assay [1] concerns the target Serine/threonine-protein kinase Nek5 (Homo sapiens) (UniProt Q6P3R8). Briefly: Selectivity interaction (KinomeScan (DiscoverX)) EUB0000339a NEK5. The following applies: at 1 µM.
The target in assay [2] is Receptor-interacting serine/threonine-protein kinase 1 (Homo sapiens) (UniProt Q13546). Briefly: Selectivity interaction (KinomeScan (DiscoverX)) EUB0000339a RIPK1. The following applies: at 1 µM.
Assay [3] has as its target T1, Myosin-IIIb (Homo sapiens) (UniProt Q8WXR4).
T1 sequence (whole entry): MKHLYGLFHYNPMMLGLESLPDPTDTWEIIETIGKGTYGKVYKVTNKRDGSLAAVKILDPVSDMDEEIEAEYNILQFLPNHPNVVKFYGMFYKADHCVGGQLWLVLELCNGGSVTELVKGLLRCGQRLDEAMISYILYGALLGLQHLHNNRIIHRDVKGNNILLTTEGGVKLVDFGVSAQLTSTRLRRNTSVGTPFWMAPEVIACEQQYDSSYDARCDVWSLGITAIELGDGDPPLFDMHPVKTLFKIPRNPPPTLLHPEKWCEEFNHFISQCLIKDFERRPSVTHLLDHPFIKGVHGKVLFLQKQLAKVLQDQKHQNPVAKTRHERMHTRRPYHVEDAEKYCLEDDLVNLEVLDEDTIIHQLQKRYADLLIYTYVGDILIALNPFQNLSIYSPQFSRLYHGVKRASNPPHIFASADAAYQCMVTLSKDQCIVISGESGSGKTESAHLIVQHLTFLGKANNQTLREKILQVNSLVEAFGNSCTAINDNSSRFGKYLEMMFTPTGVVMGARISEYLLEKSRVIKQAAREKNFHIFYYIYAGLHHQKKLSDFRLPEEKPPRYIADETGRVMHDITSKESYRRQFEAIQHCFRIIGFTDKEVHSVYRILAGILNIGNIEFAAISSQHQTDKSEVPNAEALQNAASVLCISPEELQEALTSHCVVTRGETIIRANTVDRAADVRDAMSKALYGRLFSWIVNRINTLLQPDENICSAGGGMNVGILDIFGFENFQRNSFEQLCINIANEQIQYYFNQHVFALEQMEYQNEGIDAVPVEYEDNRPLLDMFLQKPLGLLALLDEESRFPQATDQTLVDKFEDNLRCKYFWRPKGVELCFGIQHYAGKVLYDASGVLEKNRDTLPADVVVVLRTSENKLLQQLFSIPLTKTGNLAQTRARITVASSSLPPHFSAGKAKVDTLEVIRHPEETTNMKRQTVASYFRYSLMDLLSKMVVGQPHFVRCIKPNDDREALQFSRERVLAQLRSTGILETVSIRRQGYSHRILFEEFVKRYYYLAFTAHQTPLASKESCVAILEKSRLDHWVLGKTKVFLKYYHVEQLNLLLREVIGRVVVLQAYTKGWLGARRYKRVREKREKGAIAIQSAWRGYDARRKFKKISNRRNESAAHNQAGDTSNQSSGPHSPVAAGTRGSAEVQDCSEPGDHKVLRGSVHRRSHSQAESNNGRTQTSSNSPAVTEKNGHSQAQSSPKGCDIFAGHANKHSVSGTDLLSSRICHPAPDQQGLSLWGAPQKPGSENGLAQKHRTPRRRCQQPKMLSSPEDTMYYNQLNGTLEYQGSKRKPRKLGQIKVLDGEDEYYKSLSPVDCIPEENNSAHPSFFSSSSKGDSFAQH
Briefly: Selectivity interaction (KinomeScan (DiscoverX)) EUB0000339a MYO3B. The settings on record: at 1 µM.

Assay [4] deals with T2, Mitogen-activated protein kinase 12 (Homo sapiens) (UniProt P53778).
T2 sequence (whole entry): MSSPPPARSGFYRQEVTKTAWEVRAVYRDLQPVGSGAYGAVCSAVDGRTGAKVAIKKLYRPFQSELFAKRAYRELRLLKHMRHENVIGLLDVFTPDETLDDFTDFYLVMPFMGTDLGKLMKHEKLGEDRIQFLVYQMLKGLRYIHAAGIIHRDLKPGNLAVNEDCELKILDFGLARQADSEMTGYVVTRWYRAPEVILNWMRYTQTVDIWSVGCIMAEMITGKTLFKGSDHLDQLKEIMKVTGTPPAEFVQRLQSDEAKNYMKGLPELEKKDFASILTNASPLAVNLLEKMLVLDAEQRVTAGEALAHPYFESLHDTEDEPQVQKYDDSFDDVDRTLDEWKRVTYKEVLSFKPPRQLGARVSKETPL
The assay is described as follows: Selectivity interaction (KinomeScan (DiscoverX)) EUB0000263b MAPK12. The settings on record: at 1 µM.

For assay [5], the target named is Voltage-dependent L-type calcium channel subunit alpha-1S (Homo sapiens) (UniProt Q13698). The assay is described as follows: Selectivity interaction (CEREP panel (Eurofins)) EUB0000263b CACNA1S. The following applies: at 10 µM.
Voltage-dependent L-type calcium channel subunit alpha-1S (Homo sapiens), sequence (Q13698 whole entry): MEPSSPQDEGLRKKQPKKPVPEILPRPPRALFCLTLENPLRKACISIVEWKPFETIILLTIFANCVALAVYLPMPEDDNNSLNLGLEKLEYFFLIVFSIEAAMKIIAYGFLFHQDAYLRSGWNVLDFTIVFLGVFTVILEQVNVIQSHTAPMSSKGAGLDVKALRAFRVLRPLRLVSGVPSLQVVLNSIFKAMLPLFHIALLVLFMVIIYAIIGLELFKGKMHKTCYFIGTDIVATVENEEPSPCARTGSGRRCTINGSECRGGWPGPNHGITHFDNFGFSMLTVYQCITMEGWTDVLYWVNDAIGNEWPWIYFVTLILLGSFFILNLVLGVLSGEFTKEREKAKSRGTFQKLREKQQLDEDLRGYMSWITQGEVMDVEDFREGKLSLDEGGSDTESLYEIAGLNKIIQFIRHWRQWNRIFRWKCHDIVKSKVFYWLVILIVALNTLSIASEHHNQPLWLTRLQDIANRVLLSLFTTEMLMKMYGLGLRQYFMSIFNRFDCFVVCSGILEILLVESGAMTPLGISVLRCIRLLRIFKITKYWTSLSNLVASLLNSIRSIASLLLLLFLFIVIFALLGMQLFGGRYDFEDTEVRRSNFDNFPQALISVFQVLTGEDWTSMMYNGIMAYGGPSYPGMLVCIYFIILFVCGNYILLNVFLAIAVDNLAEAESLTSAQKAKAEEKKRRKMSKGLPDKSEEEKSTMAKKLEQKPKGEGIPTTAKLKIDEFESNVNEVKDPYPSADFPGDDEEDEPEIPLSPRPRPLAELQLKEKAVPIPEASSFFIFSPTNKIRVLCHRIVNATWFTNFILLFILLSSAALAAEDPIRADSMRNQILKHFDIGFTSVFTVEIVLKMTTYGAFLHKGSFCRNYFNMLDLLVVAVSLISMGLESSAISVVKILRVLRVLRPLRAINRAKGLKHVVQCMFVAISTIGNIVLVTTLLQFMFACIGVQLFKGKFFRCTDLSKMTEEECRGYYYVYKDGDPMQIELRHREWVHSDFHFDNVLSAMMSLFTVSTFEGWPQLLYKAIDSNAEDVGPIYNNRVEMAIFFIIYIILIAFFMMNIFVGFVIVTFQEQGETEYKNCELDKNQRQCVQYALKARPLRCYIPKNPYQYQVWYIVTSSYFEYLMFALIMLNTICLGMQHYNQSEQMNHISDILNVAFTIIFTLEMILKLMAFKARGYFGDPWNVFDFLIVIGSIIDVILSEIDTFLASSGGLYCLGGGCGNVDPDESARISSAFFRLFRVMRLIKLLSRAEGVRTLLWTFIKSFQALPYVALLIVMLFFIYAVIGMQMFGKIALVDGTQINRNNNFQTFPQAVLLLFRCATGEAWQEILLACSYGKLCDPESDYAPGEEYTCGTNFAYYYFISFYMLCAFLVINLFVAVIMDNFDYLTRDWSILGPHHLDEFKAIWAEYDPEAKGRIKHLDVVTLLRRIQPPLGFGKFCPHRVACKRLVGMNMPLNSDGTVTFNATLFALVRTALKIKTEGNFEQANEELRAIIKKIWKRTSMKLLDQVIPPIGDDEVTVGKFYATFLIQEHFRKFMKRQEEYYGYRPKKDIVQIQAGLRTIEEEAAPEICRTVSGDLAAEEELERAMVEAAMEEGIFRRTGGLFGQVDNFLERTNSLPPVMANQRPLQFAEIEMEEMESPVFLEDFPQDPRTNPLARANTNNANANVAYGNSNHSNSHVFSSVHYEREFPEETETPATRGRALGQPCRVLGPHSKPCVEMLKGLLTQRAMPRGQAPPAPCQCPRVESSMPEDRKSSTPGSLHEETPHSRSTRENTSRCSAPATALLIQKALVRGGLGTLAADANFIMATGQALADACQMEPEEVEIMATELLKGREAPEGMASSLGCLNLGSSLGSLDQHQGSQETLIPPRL
The target of assay [6] is T3, Homeodomain-interacting protein kinase 4 (Homo sapiens) (UniProt Q8NE63).
T3 sequence (whole entry): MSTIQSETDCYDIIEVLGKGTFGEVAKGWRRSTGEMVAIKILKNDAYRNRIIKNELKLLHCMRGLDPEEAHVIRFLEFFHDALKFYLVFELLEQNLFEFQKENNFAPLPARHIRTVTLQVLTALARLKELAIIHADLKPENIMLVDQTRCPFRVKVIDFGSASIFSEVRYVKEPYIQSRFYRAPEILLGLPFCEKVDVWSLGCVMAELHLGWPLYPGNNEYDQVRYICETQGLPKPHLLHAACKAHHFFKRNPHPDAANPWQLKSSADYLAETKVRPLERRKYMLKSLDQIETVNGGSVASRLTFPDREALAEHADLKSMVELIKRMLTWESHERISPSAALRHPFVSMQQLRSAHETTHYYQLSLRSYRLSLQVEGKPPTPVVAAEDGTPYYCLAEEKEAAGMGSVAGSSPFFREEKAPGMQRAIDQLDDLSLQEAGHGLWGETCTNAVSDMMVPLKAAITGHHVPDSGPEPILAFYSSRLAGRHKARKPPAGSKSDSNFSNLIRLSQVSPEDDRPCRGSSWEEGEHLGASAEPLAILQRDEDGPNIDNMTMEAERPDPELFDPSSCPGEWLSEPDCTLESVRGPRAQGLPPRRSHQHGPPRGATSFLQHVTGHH
The assay is described as follows: Selectivity interaction (KinomeScan (DiscoverX)) EUB0000263b HIPK4. The settings on record: at 1 µM.

The target in assay [7] is Voltage-dependent L-type calcium channel subunit alpha-1S (Homo sapiens) (UniProt Q13698). Briefly: Selectivity interaction (Enzyme panel (Eurofins-Cerep)) EUB0000263b CACNA1S. The following applies: at 10 µM.
The target of assay [8] is Dual specificity tyrosine-phosphorylation-regulated kinase 1B (Homo sapiens, UniProt Q9Y463). Briefly: Selectivity interaction (KinomeScan (DiscoverX)) EUB0000736a DYRK1B. The following applies: at 1 µM.
Dual specificity tyrosine-phosphorylation-regulated kinase 1B, sequence (Q9Y463 whole entry, looked up): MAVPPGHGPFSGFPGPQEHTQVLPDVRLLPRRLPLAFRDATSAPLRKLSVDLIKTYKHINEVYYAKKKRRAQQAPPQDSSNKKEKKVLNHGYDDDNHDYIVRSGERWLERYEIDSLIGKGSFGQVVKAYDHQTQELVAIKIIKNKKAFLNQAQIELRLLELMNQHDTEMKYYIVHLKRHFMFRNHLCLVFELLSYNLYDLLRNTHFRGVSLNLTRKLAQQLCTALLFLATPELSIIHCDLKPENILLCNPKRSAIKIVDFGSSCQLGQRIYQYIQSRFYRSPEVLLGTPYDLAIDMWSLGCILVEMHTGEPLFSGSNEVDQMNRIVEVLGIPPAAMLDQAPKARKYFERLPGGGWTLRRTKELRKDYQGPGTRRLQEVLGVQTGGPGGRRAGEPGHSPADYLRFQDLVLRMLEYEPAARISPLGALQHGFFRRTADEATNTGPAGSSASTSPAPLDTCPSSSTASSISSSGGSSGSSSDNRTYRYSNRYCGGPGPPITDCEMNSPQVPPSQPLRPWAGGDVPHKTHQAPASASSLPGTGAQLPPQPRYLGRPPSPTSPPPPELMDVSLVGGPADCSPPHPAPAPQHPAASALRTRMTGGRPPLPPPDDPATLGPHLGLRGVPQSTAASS
Assay [9] addresses Ephrin type-A receptor 6 (Homo sapiens) (UniProt Q9UF33). The assay is described as follows: Selectivity interaction (KinomeScan (DiscoverX)) EUB0000736a EPHA6. The following applies: at 1 µM.
Assay [10] concerns Tyrosine-protein kinase ABL1 (Homo sapiens), P00519 [M351T]. The assay is described as follows: (§1) Selectivity interaction (KinomeScan (DiscoverX)) EUB0000736a ABL1. The following applies: at 1 µM.
Assay [11] has as its system Tyrosine-protein kinase ABL1 (Homo sapiens), P00519 [T315I]. Described as §1. The following applies: at 10 µM.
Assay [12] deals with Ephrin type-B receptor 3 (Homo sapiens) (UniProt P54753). The assay is described as follows: Selectivity interaction (KinomeScan (DiscoverX)) EUB0000736a EPHB3. The settings on record: at 1 µM.
Ephrin type-B receptor 3 (Homo sapiens), sequence (P54753 whole entry): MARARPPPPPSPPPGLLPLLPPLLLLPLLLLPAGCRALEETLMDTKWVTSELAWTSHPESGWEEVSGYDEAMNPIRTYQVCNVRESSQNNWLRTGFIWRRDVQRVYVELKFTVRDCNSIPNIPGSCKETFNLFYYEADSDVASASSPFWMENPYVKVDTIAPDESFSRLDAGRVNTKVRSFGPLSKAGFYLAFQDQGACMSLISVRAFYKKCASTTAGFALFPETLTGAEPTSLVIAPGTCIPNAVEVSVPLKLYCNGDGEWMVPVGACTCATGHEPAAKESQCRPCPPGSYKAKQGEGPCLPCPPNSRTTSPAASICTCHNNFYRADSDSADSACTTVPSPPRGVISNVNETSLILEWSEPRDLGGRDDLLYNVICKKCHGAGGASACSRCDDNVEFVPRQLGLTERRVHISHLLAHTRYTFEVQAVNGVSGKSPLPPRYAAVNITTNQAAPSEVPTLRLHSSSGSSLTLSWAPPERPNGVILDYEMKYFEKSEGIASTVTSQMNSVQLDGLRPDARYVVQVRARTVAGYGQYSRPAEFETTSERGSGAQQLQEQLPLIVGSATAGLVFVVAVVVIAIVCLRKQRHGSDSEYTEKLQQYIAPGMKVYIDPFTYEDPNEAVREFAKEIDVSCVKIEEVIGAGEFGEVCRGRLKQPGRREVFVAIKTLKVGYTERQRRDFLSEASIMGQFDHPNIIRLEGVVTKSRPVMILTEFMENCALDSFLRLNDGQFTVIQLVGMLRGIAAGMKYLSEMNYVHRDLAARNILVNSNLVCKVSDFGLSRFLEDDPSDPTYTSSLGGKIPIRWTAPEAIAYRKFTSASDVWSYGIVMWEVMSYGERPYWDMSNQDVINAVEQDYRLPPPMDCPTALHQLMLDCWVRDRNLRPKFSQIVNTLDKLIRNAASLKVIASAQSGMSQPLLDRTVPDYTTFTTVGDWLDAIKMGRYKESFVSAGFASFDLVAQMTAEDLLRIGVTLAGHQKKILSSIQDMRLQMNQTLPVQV
The target of assay [13] is Ephrin type-A receptor 4 (Homo sapiens) (UniProt P54764). Briefly: Selectivity interaction (KinomeScan (DiscoverX)) EUB0000736a EPHA4. The settings on record: at 1 µM.
Assay [14] addresses SRSF protein kinase 2 (Homo sapiens) (UniProt P78362). The assay is described as follows: Selectivity interaction (KinomeScan (DiscoverX)) EUB0000332a SRPK2. The settings on record: at 1 µM.
The target of assay [15] is Maternal embryonic leucine zipper kinase (Homo sapiens) (UniProt Q14680). Briefly: Selectivity interaction (KinomeScan (DiscoverX)) EUB0000332a MELK. The settings on record: at 1 µM.
Assay [16] concerns the target Megakaryocyte-associated tyrosine-protein kinase (Homo sapiens) (UniProt P42679). The assay is described as follows: Selectivity interaction (KinomeScan (DiscoverX)) EUB0000332a MATK. The settings on record: at 1 µM.
Assay [17] concerns the target T4, G protein-coupled receptor kinase 3 (Homo sapiens) (UniProt P35626).
T4 sequence (whole entry): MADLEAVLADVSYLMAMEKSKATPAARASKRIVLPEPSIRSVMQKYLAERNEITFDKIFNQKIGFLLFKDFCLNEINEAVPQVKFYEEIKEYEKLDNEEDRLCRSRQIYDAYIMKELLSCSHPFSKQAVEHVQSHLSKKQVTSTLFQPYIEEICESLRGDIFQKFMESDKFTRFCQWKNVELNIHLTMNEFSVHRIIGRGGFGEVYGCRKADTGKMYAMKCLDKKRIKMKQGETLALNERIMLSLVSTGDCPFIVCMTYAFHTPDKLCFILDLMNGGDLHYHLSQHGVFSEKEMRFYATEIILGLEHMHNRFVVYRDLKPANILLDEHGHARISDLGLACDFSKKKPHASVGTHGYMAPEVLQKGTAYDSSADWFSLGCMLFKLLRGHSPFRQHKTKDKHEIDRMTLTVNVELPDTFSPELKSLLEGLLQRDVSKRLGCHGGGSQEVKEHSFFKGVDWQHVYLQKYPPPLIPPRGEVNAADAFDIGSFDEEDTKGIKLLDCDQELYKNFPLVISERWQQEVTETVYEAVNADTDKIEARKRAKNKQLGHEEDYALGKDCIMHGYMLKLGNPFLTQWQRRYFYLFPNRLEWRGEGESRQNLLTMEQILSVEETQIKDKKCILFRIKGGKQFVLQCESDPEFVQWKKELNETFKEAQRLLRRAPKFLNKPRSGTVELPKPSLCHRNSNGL
Briefly: Selectivity interaction (KinomeScan (DiscoverX)) EUB0000332a ADRBK2. The settings on record: at 1 µM.

The target in assay [18] is Mast/stem cell growth factor receptor Kit (Homo sapiens, UniProt P10721). Briefly: Selectivity interaction (KinomeScan (DiscoverX)) EUB0000634a KIT. The settings on record: at 1 µM.
Assay [19] has as its target Mitogen-activated protein kinase 9 (Homo sapiens, UniProt P45984). The assay is described as follows: Selectivity interaction (KinomeScan (DiscoverX)) EUB0000634a MAPK9. The settings on record: at 1 µM.
The target in assay [20] is Platelet-derived growth factor receptor beta (Homo sapiens, UniProt P09619). The assay is described as follows: Selectivity interaction (KinomeScan (DiscoverX)) EUB0000634a PDGFRB. The settings on record: at 1 µM.
In assay [21] the target is Histamine H1 receptor (Homo sapiens, UniProt P35367). The assay is described as follows: Selectivity interaction (GPCR panel (PDSP screen)) EUB0000350a HRH1. The following applies: at 10 µM.

Megakaryocyte-associated tyrosine-protein kinase (Homo sapiens), sequence (P42679 whole entry): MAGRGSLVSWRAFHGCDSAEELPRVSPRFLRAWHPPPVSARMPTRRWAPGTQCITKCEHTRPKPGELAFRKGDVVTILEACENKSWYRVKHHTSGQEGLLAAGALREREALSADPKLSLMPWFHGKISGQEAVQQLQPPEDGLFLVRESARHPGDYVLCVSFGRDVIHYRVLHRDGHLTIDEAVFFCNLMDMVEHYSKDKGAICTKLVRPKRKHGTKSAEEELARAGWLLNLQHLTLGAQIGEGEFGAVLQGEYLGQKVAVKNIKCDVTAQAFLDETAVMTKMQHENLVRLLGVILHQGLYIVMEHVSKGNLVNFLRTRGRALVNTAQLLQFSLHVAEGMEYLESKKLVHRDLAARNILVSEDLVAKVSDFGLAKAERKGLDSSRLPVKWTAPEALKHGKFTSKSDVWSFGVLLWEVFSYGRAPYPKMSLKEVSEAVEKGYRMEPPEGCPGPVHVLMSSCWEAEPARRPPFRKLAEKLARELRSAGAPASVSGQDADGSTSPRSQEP
Serine/threonine-protein kinase Nek5 (Homo sapiens), sequence (Q6P3R8 whole entry): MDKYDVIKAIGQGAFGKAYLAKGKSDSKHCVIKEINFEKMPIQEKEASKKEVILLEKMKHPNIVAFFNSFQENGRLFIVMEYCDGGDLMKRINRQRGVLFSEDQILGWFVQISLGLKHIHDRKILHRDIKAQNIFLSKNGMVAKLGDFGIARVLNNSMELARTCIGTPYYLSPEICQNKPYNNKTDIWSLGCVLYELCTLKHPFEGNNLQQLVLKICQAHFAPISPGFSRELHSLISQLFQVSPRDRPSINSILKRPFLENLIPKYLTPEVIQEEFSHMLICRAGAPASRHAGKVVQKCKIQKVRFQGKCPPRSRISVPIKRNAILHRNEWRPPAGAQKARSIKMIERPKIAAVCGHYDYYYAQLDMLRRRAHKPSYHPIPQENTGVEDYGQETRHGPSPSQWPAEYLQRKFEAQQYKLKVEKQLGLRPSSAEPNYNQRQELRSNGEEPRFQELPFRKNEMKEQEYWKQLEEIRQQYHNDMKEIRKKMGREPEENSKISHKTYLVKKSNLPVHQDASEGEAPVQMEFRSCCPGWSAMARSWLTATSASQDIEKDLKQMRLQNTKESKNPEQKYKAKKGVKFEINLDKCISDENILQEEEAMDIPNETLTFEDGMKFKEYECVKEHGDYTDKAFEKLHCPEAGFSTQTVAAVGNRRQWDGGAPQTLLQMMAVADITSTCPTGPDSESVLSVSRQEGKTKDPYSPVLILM

As to `CCCOc1ccc([C@@H]2[C@@H](C(=O)O)[C@H](c3ccc4c(c3)OCO4)CN2CC(=O)Nc2c(CC)cccc2CC)cc1`, the % of control in assay [1] is 55%; in assay [2], 55%; in [3], 52%.

As for `CO[C@H]1CC[C@H](CNc2ccc(S(=O)(=O)NC(=O)c3ccc(N4CCN(CC5=C(c6ccc(Cl)cc6)CC(C)(C)CC5)CC4)cc3Oc3cnc4[nH]ccc4c3)cc2[N+](=O)[O-])CC1`, the % of control in assay [4] is 47%; in assay [6], 4.4%. Further, the % of inhibition in [5] and in assay [7] was 63.2% throughout.

For the compound `Cn1cncc1[C@@](O)(COc1ccc(C#N)cc1-c1ccc(OC(F)(F)F)cc1)c1ccc(C#N)cc1`, the % of control in assay [8] was 38%; in assay [9] it was 3%; in assay [10], 6.2%; in assay [11], 6.1%; in assay [12] it was 6%; in assay [13], 12%.

As for `CSc1cccnc1N1CCN(Cc2nc3ccccc3[nH]2)CC1`, the % of control was 59% in [14], 46% in assay [15], 45% in assay [16] and 31% in assay [17].

`COc1ccc(Oc2cc(NCCC(F)(F)F)c3ncc(-c4ccc(C(=O)NC5CC5)c(C)c4)n3n2)c(F)c1F`: the % of control in assay [18] worked out at 2%; in assay [19], 4%; in assay [20], 0%.

In the case of `CCCOc1ccc([C@H]2[C@H](C(=O)O)[C@@H](c3ccc4c(c3)OCO4)CN2CC(=O)Nc2c(CC)cccc2CC)cc1`, in assay [21], the % of inhibition turned out to be 36%.
